Data reported in PubChem BioAssay AID1259407 (Chemical Carcinogenesis Research Information System (CCRIS), 2018).
The source made the active and inactive calls. How the calls were made is not given here.

Test system: CCRIS mutagenicity, Ames/micronucleus/aberration tests
Assay: CCRIS mutagenicity studies

Measured: mutagenic call

O=C1C=Cc2ccccc2C1=O
inactive: Test System: AMES SALMONELLA TYPHIMURIUM, Strain/Indicator: TA97, Metabolic Activation: RAT, LIVER, S-9, PHENOBARBITAL AND 5,6-BENZOFLAVONE, Method: PREINCUBATION inactive; negative | Test System: AMES SALMONELLA TYPHIMURIUM, Strain/Indicator: TA98, Metabolic Activation: RAT, LIVER, S-9, PHENOBARBITAL AND 5,6-BENZOFLAVONE, Method: PREINCUBATION inactive; negative | Test System: AMES SALMONELLA TYPHIMURIUM, Strain/Indicator: TA102, Metabolic Activation: RAT, LIVER, S-9, PHENOBARBITAL AND 5,6-BENZOFLAVONE, Method: PREINCUBATION inactive; negative | Test System: AMES SALMONELLA TYPHIMURIUM, Strain/Indicator: TA1535, Metabolic Activation: NONE, Method: PREINCUBATION inactive; negative | Test System: AMES SALMONELLA TYPHIMURIUM, Strain/Indicator: TA1535, Metabolic Activation: RAT, LIVER, S-9, PHENOBARBITAL AND 5,6-BENZOFLAVONE, Method: PREINCUBATION inactive; negative | Test System: AMES SALMONELLA TYPHIMURIUM, Strain/Indicator: TA1537, Metabolic Activation: NONE, Method: PREINCUBATION inactive; negative | Test System: AMES SALMONELLA TYPHIMURIUM, Strain/Indicator: TA1537, Metabolic Activation: RAT, LIVER, S-9, PHENOBARBITAL AND 5,6-BENZOFLAVONE, Method: PREINCUBATION inactive; negative | Test System: AMES SALMONELLA TYPHIMURIUM, Strain/Indicator: TA1538, Metabolic Activation: NONE, Method: PREINCUBATION inactive; negative | Test System: AMES SALMONELLA TYPHIMURIUM, Strain/Indicator: TA1538, Metabolic Activation: RAT, LIVER, S-9, PHENOBARBITAL AND 5,6-BENZOFLAVONE, Method: PREINCUBATION inactive; negative | Test System: AMES SALMONELLA TYPHIMURIUM, Strain/Indicator: TA2637, Metabolic Activation: RAT, LIVER, S-9, PHENOBARBITAL AND 5,6-BENZOFLAVONE, Method: PREINCUBATION inactive; negative
active: Test System: AMES SALMONELLA TYPHIMURIUM, Strain/Indicator: TA97, Metabolic Activation: NONE, Method: PREINCUBATION active; positive | Test System: AMES SALMONELLA TYPHIMURIUM, Strain/Indicator: TA97A, Metabolic Activation: NONE, Method: PREINCUBATION active; positive | Test System: AMES SALMONELLA TYPHIMURIUM, Strain/Indicator: TA100, Metabolic Activation: NONE, Method: PREINCUBATION active; positive | Test System: AMES SALMONELLA TYPHIMURIUM, Strain/Indicator: TA100, Metabolic Activation: RAT, LIVER, S-9, PHENOBARBITAL AND 5,6-BENZOFLAVONE, Method: PREINCUBATION active; positive | Test System: AMES SALMONELLA TYPHIMURIUM, Strain/Indicator: TA104, Metabolic Activation: NONE, Method: PREINCUBATION active; positive | Test System: AMES SALMONELLA TYPHIMURIUM, Strain/Indicator: TA104, Metabolic Activation: RAT, LIVER, S-9, PHENOBARBITAL AND 5,6-BENZOFLAVONE, Method: PREINCUBATION active; positive | Test System: AMES SALMONELLA TYPHIMURIUM, Strain/Indicator: TA2637, Metabolic Activation: NONE, Method: PREINCUBATION active; positive

COc1cccc2c1CC([N+](=O)[O-])c1ccc3c(c1-2)OCO3 (stereo not given)
active: Test System: AMES SALMONELLA TYPHIMURIUM, Strain/Indicator: TA98, Metabolic Activation: NONE, Method: STANDARD PLATE active; positive | Test System: AMES SALMONELLA TYPHIMURIUM, Strain/Indicator: TA98, Metabolic Activation: RAT, LIVER, S-9, PHENOBARBITAL, Method: STANDARD PLATE active; positive | Test System: AMES SALMONELLA TYPHIMURIUM, Strain/Indicator: TA100, Metabolic Activation: NONE, Method: STANDARD PLATE active; positive | Test System: AMES SALMONELLA TYPHIMURIUM, Strain/Indicator: TA100, Metabolic Activation: RAT, LIVER, S-9, PHENOBARBITAL, Method: STANDARD PLATE active; positive | Test System: AMES SALMONELLA TYPHIMURIUM, Strain/Indicator: TA1535, Metabolic Activation: NONE, Method: STANDARD PLATE active; positive | Test System: AMES SALMONELLA TYPHIMURIUM, Strain/Indicator: TA1535, Metabolic Activation: RAT, LIVER, S-9, PHENOBARBITAL, Method: STANDARD PLATE active; positive
inactive: Test System: AMES SALMONELLA TYPHIMURIUM, Strain/Indicator: D3052, Metabolic Activation: NONE, Method: STANDARD PLATE inactive; negative | Test System: AMES SALMONELLA TYPHIMURIUM, Strain/Indicator: D3052, Metabolic Activation: RAT, LIVER, S-9, PHENOBARBITAL, Method: STANDARD PLATE inactive; negative | Test System: AMES SALMONELLA TYPHIMURIUM, Strain/Indicator: G46, Metabolic Activation: NONE, Method: STANDARD PLATE inactive; negative | Test System: AMES SALMONELLA TYPHIMURIUM, Strain/Indicator: G46, Metabolic Activation: RAT, LIVER, S-9, PHENOBARBITAL, Method: STANDARD PLATE inactive; negative | Test System: AMES SALMONELLA TYPHIMURIUM, Strain/Indicator: TA1978, Metabolic Activation: NONE, Method: STANDARD PLATE inactive; negative | Test System: AMES SALMONELLA TYPHIMURIUM, Strain/Indicator: TA1978, Metabolic Activation: RAT, LIVER, S-9, PHENOBARBITAL, Method: STANDARD PLATE inactive; negative

Oc1ccc2c(c1)sc1ccccc12
active: Test System: CHINESE HAMSTER OVARY, Strain/Indicator: CHO-K1-BH4 (HGPRT)/6-THIOGUANINE, Metabolic Activation: RAT, LIVER, S-9, AROCLOR (4%) active; positive
